The target of test [1] is GST-tagged K-Ras mutant / His-tagged hSOS1 (Homo sapiens, UniProt P01116). Kind of test: HTRF assay, K-Ras mutant / SOS1 interaction. In kind it is binding. The conditions noted are these: read-out: IC50 against mutant Kras. Put shortly:
(§1)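 Buffer ~5 mM HEPES pH 7.4, ~150 mM NaCl, ~1 mM DTT, 0.05% BSA, 0.0025% Igepal. Cpd in DMSO + Ras/donor mix + SOS1/acceptor mix; ≥10 min; HTRF 665/620 ratio → IC50.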

The target in test [2] is T1, wildtype Kras / hSOS1 (Homo sapiens, UniProt P01116).
T1 construct: made in house; host or cells: E. coli BL21 (DE3)
Kind of test: HTRF assay, wildtype Kras / SOS1 interaction. It counts as binding. The conditions noted are these: read-out: IC50 against wildtype Kras. Put shortly:
as §1

Setting [3] is: compound nos. 102-196, general methodology of example 5.
[4] abbreviates: compound nos. 201-213, general methodology of example 5.

These results are taken from US20240254129A1, “HETEROCYCLIC COMPOUNDS AND USES THEREOF” (Kumquat Biosciences Inc., priority 2021, published 2024).

The structures appear in SMILES notation. Read-outs that look alike come from different tables or passages of the source.

What is called IC50 is the concentration needed to halve the response being measured.

T1 sequence (P01116 1-188 isoform P01116-2): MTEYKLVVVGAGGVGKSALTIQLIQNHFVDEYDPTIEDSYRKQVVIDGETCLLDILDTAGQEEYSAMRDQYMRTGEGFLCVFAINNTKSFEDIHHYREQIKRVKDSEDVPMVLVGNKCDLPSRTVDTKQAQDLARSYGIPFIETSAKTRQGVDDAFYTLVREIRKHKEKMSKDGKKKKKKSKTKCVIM
Sequence of GST-tagged K-Ras mutant / His-tagged hSOS1 (P01116 whole entry G12D, form open): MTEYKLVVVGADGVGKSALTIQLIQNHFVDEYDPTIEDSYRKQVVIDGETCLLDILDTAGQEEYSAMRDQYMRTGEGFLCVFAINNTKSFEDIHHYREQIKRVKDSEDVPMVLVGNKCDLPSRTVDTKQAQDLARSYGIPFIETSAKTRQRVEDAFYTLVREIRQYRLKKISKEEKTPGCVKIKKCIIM

For the compound `Cc1ccc2[nH]nc(N)c2c1-c1c(Cl)cc2c(N3CCNCC(F)(F)C3)nc(OC[C@@H]3CCCN3C)nc2c1F` [Compound 171, 4-(6-chloro-4-(6,6-difluoro-1,4-diazepan-1-yl)-8-fluoro-2-(((S)-1-methylpyrrolidin-2-yl)methoxy)quinazolin-7-yl)-5-methyl-1H-indazol-3-amine], the IC50 in test [1] (setting [3]) and in test [2] (setting [3]) was over 0.5 µM in each case.

With `N#CC1CCCN(c2nc(OCC34CCCN3CCC4)nc3c(F)c(-c4ccc(F)c5sc(N)nc45)c(Cl)cc23)CC1` (centres unmarked) [Compound 172, 1-(7-(2-amino-7-fluoro-benzo[d]thiazol-4-yl)-6-chloro-8-fluoro-2-((tetra-hydro-1H-pyrrolizin-7a(5H)-yl)methoxy)-quinazolin-4-yl)azepane-4-carbonitrile], the IC50 in test [1] (setting [3]) and in test [2] (setting [3]) was under 0.5 µM in each case.

Regarding `CN1CCC[C@H]1COc1nc(N2CCCC(O)CC2)c2cc(Cl)c(-c3cccc4sc(N)nc34)c(F)c2n1` (stereo partly drawn) [Compound 173, 1-(7-(2-aminobenzo[d]-thiazol-4-yl)-6-chloro-8-fluoro-2-(((S)-1-methyl-pyrrolidin-2-yl)methoxy)-quinazolin-4-yl)azepan-4-ol], the IC50 in test [1] (setting [3]) and in test [2] (setting [3]) was under 0.5 µM in each case.

For the compound `Nc1nc2c(-c3c(Cl)cc4c(N5CCNCC(F)(F)C5)nc(OC[C@@]56CCCN5C[C@H](F)C6)nc4c3F)cccc2o1` [Compound 174, 4-(6-chloro-4-(6,6-difluoro-1,4-diazepan-1-yl)-8-fluoro-2-(((2R,7aS)-2-fluorotetra-hydro-1H-pyrrolizin-7a(5H)-yl)methoxy)quinazolin-7-yl)benzo[d]oxazol-2-amine], the IC50 in test [1] (setting [3]) and in test [2] (setting [3]) was under 0.5 µM in each case.

Consider `Cc1ccc2cnn(C)c2c1-c1c(Cl)cc2c(N3CCNCC(F)(F)C3)nc(OC[C@@]34CCCN3C[C@H](F)C4)nc2c1F` [Compound 175, 6-chloro-4-(6,6-difluoro-1,4-diazepan-1-yl)-7-(1,6-dimethyl-1H-indazol-7-yl)-8-fluoro-2-(((2R,7aS)-2-fluorotetrahydro-1H-pyrrolizin-7a(5H)-yl)meth-oxy)quinazoline], for which the IC50 in test [1] (setting [3]) and in test [2] (setting [3]) was under 0.5 µM throughout.

On to `CN1CCC[C@H]1COc1nc(N2CCNCC(F)(F)C2)c2cc(Cl)c(-c3cccc4oc(O)nc34)c(F)c2n1` [Compound 176, 4-(6-chloro-4-(6,6-difluoro-1,4-diazepan-1-yl)-8-fluoro-2-(((S)-1-methylpyrrolidin-2-yl)methoxy)quinazolin-7-yl)benzo[d]oxazol-2-ol], for which the IC50 in test [1] (setting [3]) and in test [2] (setting [3]) was over 0.5 µM each time.

As to `CN1CCC[C@H]1COc1nc(N2CCNCC(F)(F)C2)c2cc(Cl)c(-c3cccc4sc(O)nc34)c(F)c2n1` [Compound 177, 4-(6-chloro-4-(6,6-difluoro-1,4-diazepan-1-yl)-8-fluoro-2-(((S)-1-methylpyrrolidin-2-yl)methoxy)quinazolin-7-yl)benzo[d]thiazol-2-ol], the IC50 in test [1] (setting [3]) and in test [2] (setting [3]) was over 0.5 µM throughout.

Consider `CN1CCC[C@H]1COc1nc(N2CCNCC(F)(F)C2)c2cc(Cl)c(-c3cccc4[nH]c(N)nc34)c(F)c2n1` [Compound 178, 4-(6-chloro-4-(6,6-difluoro-1,4-diazepan-1-yl)-8-fluoro-2-(((S)-1-methylpyrrolidin-2-yl)methoxy)quinazolin-7-yl)-1H-benzo[d]imidazol-2-amine], for which the IC50 in test [1] (setting [3]) and in test [2] (setting [3]) was over 0.5 µM in each case.

For the compound `Cc1ccc2cnn(C)c2c1-c1c(Cl)cc2c(N3CCCCC(F)(F)C3)nc(OC[C@@]34CCCN3C[C@H](F)C4)nc2c1F` [Compound 179, 6-chloro-4-(3,3-difluoro-azepan-1-yl)-7-(1,6-dimethyl-1H-indazol-7-yl)-8-fluoro-2-(((2R,7aS)-2-fluoro-tetrahydro-1H-pyrrolizin-7a(5H)-yl)-methoxy)quinazoline], the IC50 in test [1] (setting [3]) and in test [2] (setting [3]) was over 0.5 µM in each case.

For `CN1CCC[C@H]1COc1nc(N2C3CCNCC2CC3)c2cc(Cl)c(-c3cccc4sc(N)nc34)c(F)c2n1` (stereo partly drawn) [Compound 180, 4-(4-(3,9-diazabicyclo-[4.2.1]nonan-9-yl)-6-chloro-8-fluoro-2-(((S)-1-methyl-pyrrolidin-2-yl)methoxy)-quinazolin-7-yl)benzo[d]-thiazol-2-amine], the IC50 in test [1] (setting [3]) is under 0.5 µM; in test [2] (setting [3]), over 0.5 µM.

In the case of `CN1CCC[C@H]1COc1nc(N2CCCCC(F)C2)c2cc(Cl)c(-c3cccc4sc(N)nc34)c(F)c2n1` (stereo partly drawn) [Compound 181, 4-(6-chloro-8-fluoro-4-(3-fluoroazepan-1-yl)-2-(((S)-1-methylpyrrolidin-2-yl)-methoxy)quinazolin-7-yl)-benzo[d]thiazol-2-amine], the IC50 in test [1] (setting [3]) and in test [2] (setting [3]) was under 0.5 µM throughout.

For `CN1CCC[C@H]1COc1nc(N2CCCCC(F)(F)C2)c2cc(Cl)c(-c3cccn4nc(N)nc34)c(F)c2n1` [Compound 182, (S)-8-(6-chloro-4-(3,3-difluoroazepan-1-yl)-8-fluoro-2-((1-methylpyrrol-idin-2-yl)methoxy)quin-azolin-7-yl)[1,2,4]triazolo-[1,5-a]pyridin-2-amine], the IC50 in test [1] (setting [3]) and in test [2] (setting [3]) was over 0.5 µM throughout.

For `CN1CCC[C@H]1COc1nc(N2CCNCC(F)(F)C2)c2cc(Cl)c(-c3cccc4ccc(N)nc34)c(F)c2n1` [Compound 183, 8-(6-chloro-4-(6,6-difluoro-1,4-diazepan-1-yl)-8-fluoro-2-(((S)-1-methylpyrrolidin-2-yl)methoxy)quinazolin-7-yl)quinolin-2-amine], the IC50 in test [1] (setting [3]) and in test [2] (setting [3]) was over 0.5 µM each time.

In the case of `CN1CCC[C@H]1COc1nc(N2CCNCC(F)(F)C2)c2cc(Cl)c(-c3cccc4nc(N)sc34)c(F)c2n1` [Compound 184, 7-(6-chloro-4-(6,6-difluoro-1,4-diazepan-1-yl)-8-fluoro-2-(((S)-1-methylpyrrolidin-2-yl)methoxy)quinazolin-7-yl)benzo[d]thiazol-2-amine], the IC50 in test [1] (setting [3]) and in test [2] (setting [3]) was over 0.5 µM throughout.

As for `CN1CCC[C@H]1COc1nc(N2CCNCC(F)(F)C2)c2cc(Cl)c(-c3cccc4oc(C#N)nc34)c(F)c2n1` [Compound 185, 4-(6-chloro-4-(6,6-difluoro-1,4-diazepan-1-yl)-8-fluoro-2-(((S)-1-methylpyrrolidin-2-yl)methoxy)quinazolin-7-yl)benzo[d]oxazole-2-carbonitrile], the IC50 in test [1] (setting [3]) and in test [2] (setting [3]) was over 0.5 µM each time.

For the compound `CN1CCC[C@H]1COc1nc(N2CCNCC(F)(F)C2)c2cc(Cl)c(-c3cccc4nc(N)n(C)c34)c(F)c2n1` [Compound 186, 7-(6-chloro-4-(6,6-difluoro-1,4-diazepan-1-yl)-8-fluoro-2-(((S)-1-methylpyrrolidin-2-yl)methoxy)quinazolin-7-yl)-1-methyl-1H-benzo[d]-imidazol-2-amine], the concentration for half-maximal inhibition (IC50) in test [1] (setting [3]) and in test [2] (setting [3]) was over 0.5 µM in each case.

Turning to `N#CCC1CNCCN(c2nc(OCC34CCCN3CCC4)nc3c(F)c(-c4ccc(F)c5sc(N)nc45)c(Cl)cc23)C1` (centres unmarked) [Compound 187, 2-(1-(7-(2-amino-7-fluoro-benzo[d]thiazol-4-yl)-6-chloro-8-fluoro-2-((tetra-hydro-1H-pyrrolizin-7a(5H)-yl)methoxy)quin-azolin-4-yl)-1,4-diazepan-6-yl)acetonitrile], the half-maximal inhibitory concentration (IC50) in test [1] (setting [3]) and in test [2] (setting [3]) was under 0.5 µM each time.

As to `Cc1cc(N)nc(-c2c(Cl)cc3c(N4CCNCC(F)(F)C4)nc(OC[C@@H]4CCCN4C)nc3c2F)c1` [Compound 189, (S)-6-(6-chloro-4-(6,6-difluoro-1,4-diazepan-1-yl)-8-fluoro-2-((1-methyl-pyrrolidin-2-yl)methoxy)-quinazolin-7-yl)-4-methyl-pyridin-2-amine], the IC50 in test [1] (setting [3]) and in test [2] (setting [3]) was over 0.5 µM throughout.

For the compound `Nc1nc2c(-c3c(Cl)cc4c(N5CCCCC(F)C5)nc(OC[C@@]56CCCN5C[C@H](F)C6)nc4c3F)ccc(F)c2s1` (stereo partly drawn) [Compound 190, 4-(6-chloro-8-fluoro-4-(3-fluoroazepan-1-yl)-2-(((2R,7aS)-2-fluorotetra-hydro-1H-pyrrolizin-7a(5H)-yl)methoxy)quin-azolin-7-yl)-7-fluorobenzo-[d]thiazol-2-amine], the IC50 in test [1] (setting [3]) and in test [2] (setting [3]) was under 0.5 µM throughout.

Turning to `Cc1ccnc(C(C)C)c1-n1c(=O)nc(N2CCNCC(F)(F)C2)c2cc(F)c(-c3c(O)cccc3F)nc21` [Compound 195, 4-(6,6-difluoro-1,4-diazepan-1-yl)-6-fluoro-7-(2-fluoro-6-hydroxyphenyl)-1-(2-isopropyl-4-methylpyridin-3-yl)pyrido[2,3-d]pyrimidin-2(1H)-one], the IC50 in test [1] (setting [3]) and in test [2] (setting [3]) was over 0.5 µM throughout.

Take `Cc1ccnc(C(C)C)c1-n1c(=O)nc(N2CCNCC(F)(F)C2)c2cc(F)c(-c3cc(O)cc4ccccc34)nc21` [Compound 196, 4-(6,6-difluoro-1,4-diazepan-1-yl)-6-fluoro-7-(3-hydroxynaphthalen-1-yl)-1-(2-isopropyl-4-methyl-pyridin-3-yl)pyrido[2,3-d]-pyrimidin-2(1H)-one]: the IC50 in test [1] (setting [3]) and in test [2] (setting [3]) was over 0.5 µM each time.

Regarding `Nc1nc2c(-c3c(Cl)cc4c(N5CC6CNC(C6)C5)nc(OC[C@@]56CCCN5C[C@H](F)C6)nc4c3F)ccc(F)c2s1` (stereo partly drawn) [Compound 201, 4-(4-(3,6-diazabicyclo[3.2.1]octan-3-yl)-6-chloro-8-fluoro-2-(((2R,7aS)-2-fluorotetrahydro-1H-pyrrolizin-7a(5H)-yl)methoxy)quinazolin-7-yl)-7-fluorobenzo[d]thiazol-2-amine], the IC50 in test [1] (setting [4]) and in test [2] (setting [4]) was under 1.5 µM throughout.
